This note sets out measurements from US20250304549A1, “HYDROXYAMIDE DERIVATIVE AND USE THEREOF” (SICHUAN HUIYU PHARMACEUTICAL CO., LTD., priority 2022, published 2025).

Where a name gives a salt, the structure may show the parent alone.

Assay [1] concerns the target LSD1 (Homo sapiens (Human), UniProt O60341). Briefly: In vitro enzyme inhibition assay - LSD1 (HTRF). Type of assay: biochemical. (In general: In TR-FRET formats the signal depends on donor and acceptor labels being close together.)
In assay [2] the target is pan-HDAC. Briefly: In vitro enzyme inhibition assay - HDAC (HDAC-Glo I/II), pan-HDAC. Type of assay: biochemical. In a few lines:
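Eight compound concentrations (5-fold gradient; 1 mM DMSO stock) were assayed by HDAC-Glo I/II luminescence. IC50 was obtained by four-parameter fitting.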

For assay [3], the system named is NCI-H1417 cells. Description: In vitro cell inhibition assay - H1417 cell proliferation (CellTiter-Glo). The assay is classed as cell-based. Put shortly:
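Cells exposed to 8 compound concentrations (5-fold dilutions) in BEGM with 10% FBS for 7 days at 37° C., 5% CO2. Viable cells measured by CellTiter-Glo luminescence; inhibition versus no-inhibitor and no-cell controls, IC50 fitted.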
(In general: In ATP-based viability assays light output follows the ATP content of the culture.)

The subject of assay [4] is NCI-H69 cells. Briefly: In vitro cell inhibition assay - NCI-H69 cell proliferation (CellTiter-Glo). Type of assay: cell-based. Put shortly:
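Over 7 days at 37° C. and 5% CO2, cells grew in RPMI-640 supplemented with 20% FBS in the presence of eight 5-fold-spaced compound concentrations.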

Assay [5] concerns DU145 cells. Description: In vitro cell inhibition assay - DU145 cell proliferation (CellTiter-Glo). Type of assay: cell-based. On the procedure:
5. In Vitro Cell Inhibition Assay—DU145 Cell Proliferation
The inhibitory effect of the compounds on cell proliferation was assessed by detecting the number of viable cells using the CellTiter-Glo® reagent. DU145 cells in the logarithmic growth phase were collected and inoculated into transparent bottom 96-well plates at a density 1×10^3 cells per well with 100 μL medium, and incubated at 37° C., 5% CO2 overnight. The compounds were sequentially diluted in a 5-fold concentration gradient with DMSO to obtain 8 different concentrations. These were then diluted with RPMI-640 (containing 10% FBS) cell culture medium to obtain the compound working solution (2×), which was added to the cell supernatant at 100 μL per well. The incubation continued for 6 days at 37° C., 5% CO2. The plate was then removed and equilibrated at room temperature (25° C.) along with the CellTiter-Glo® mixing reagent for 10-30 minutes. After centrifugation, 120 μL of the culture medium was carefully aspirated from each well, and 60 μL of CellTiter-Glo® reagent was added. The cells were thoroughly mixed with the CellTiter-Glo® mixing reagent using a microplate shaker for 2 min. and then incubated at room temperature for 10 min. The 96-well plate was subsequently placed on a multifunctional microplate reader to record the Luminescence values (RLU).
The inhibition rate was calculated using the following formula: […]
Note: ‘Negative’ refers to the group without inhibitors; ‘Blank’ refers to the group without cells.
The IC50 value was determined by fitting the inhibition rate by GraphPad Prism software.

The mark [6] stands for this setting: Homo sapiens, NCI-H1417, H1417 small cell lung cancer cell proliferation.
Setting [7] is: Homo sapiens, NCI-H69, H69 small cell lung cancer cell proliferation.
Setting [8] is: Homo sapiens, DU-145, Du145 prostate cancer cell proliferation.

For the compound `Cc1ccc(-c2c(OCCCCCCC(=O)NO)cc(N3CCC(N)CC3)nc2-c2ccc(C#N)c(F)c2)cc1` [Example 7, 7-[(6-(4-Aminopiperidin-1-yl)-2-(4-cyano-3-fluorophenyl)-3-(4-methylphenyl)pyridin-4-yl)oxy]-N-hydroxyheptanamide-hydrochloride], the IC50 – broadly, the concentration needed to halve the response being measured – in assay [1] came to 36 nM; in assay [2], 41.3 nM; in assay [3] (setting [6]) it was 762 nM; in assay [4] (setting [7]), 2540 nM; in assay [5] (setting [8]) it was 2960 nM.
Taken in the same sequence, the figures for `COc1ccc(-c2c(OCCCCCCC(=O)NO)cc(N3CCC(N)CC3)nc2-c2ccc(C#N)c(F)c2)cc1` [Example 8, 7-[(6-(4-Aminopiperidin-1-yl)-2-(4-cyano-3-fluorophenyl)-3-(4-methoxyphenyl)pyridin-4-yl)oxy]-N-hydroxyheptanamide trifluoroacetate] were 18.6 nM, 21.7 nM, 501 nM, 2530 nM and 2850 nM.
For the compound `N#Cc1ccc(-c2nc(N3CCC(N)CC3)cc(OCCCCCCC(=O)NO)c2-c2ccc(Cl)cc2)cc1F` [Example 11, 7-((6-(4-Aminopiperidin-1-yl)-3-(4-chlorophenyl)-2-(4-cyano-3-fluorophenyl)pyridin-4-yl)oxy)-N-hydroxyheptanamide hydrochloride], the IC50 in assay [2] was 116 nM; in assay [3] (setting [6]) it was more than 1000 nM; in assay [4] (setting [7]), 2360 nM; in assay [5] (setting [8]) it was 2000 nM.
As to `Cn1cc2cc(-c3c(OCCCCCCC(=O)NO)cc(N4CCC(N)CC4)nc3-c3ccc(C#N)c(F)c3)ccc2n1` [Example 14, 7-((6-(4-Aminopiperidin-1-yl)-2-(4-cyano-3-fluorophenyl)-3-(2-methyl-2H-indazol-5-yl)pyridin-4-yl)oxy)-N-hydroxyheptanamide formate], the IC50 in assay [3] (setting [6]) is more than 1000 nM; in assay [4] (setting [7]) it was 2520 nM; in assay [5] (setting [8]), 3210 nM.
In the case of `COc1ccc(-c2cnc(N3CCC(NCc4ccc(C(=O)NO)cc4)CC3)c(C#N)c2-c2ccc(C#N)c(F)c2)cc1O` [Example 41, 4-(((1-(3-Cyano-4-(4-cyano-3-fluorophenyl)-5-(3-hydroxy-4-methoxyphenyl)pyridin-2-yl)piperidin-4-yl)amino)methyl)-N-hydroxybenzamide hydrochloride], the IC50 came out at 0.13 nM in assay [1], 1.29 nM in assay [3] (setting [6]), 1680 nM in assay [4] (setting [7]) and 5060 nM in assay [5] (setting [8]).
Take `COc1cc(-c2cnc(N3CCC(NCc4ccc(/C=C/C(=O)NO)cc4)CC3)c(F)c2-c2ccc(C#N)c(F)c2)ccc1O` [Example 77, (E)-3-(4-(((1-(4-(4-Cyano-3-fluorophenyl)-3-fluoro-5-(4-hydroxy-3-methoxyphenyl)pyridin-2-yl)piperidin-4-yl)amino)methyl)phenyl)-N-hydroxyacrylamide formate]: the IC50 in assay [3] (setting [6]) is 661 nM; in assay [4] (setting [7]) it was 121 nM; in assay [5] (setting [8]), 320 nM.
For the compound `COc1ccc(-c2cnc(N3CCC(Nc4ccc(/C=C/C(=O)NO)cc4)CC3)c(C#N)c2-c2ccc(C#N)c(F)c2)cc1O` [Example 82, (E)-3-(4-((1-(3-Cyano-4-(4-cyano-3-fluorophenyl)-5-(3-hydroxy-4-methoxyphenyl)pyridin-2-yl)piperidin-4-yl)amino)phenyl)-N-hydroxyacrylamide formate], the IC50 amounted to 11.5 nM in assay [3] (setting [6]), 268 nM in assay [4] (setting [7]) and 352 nM in assay [5] (setting [8]).
Taken in the same sequence, the figures for `COc1ccc(-c2cnc(N3CCC(CCc4ccc(/C=C/C(=O)NO)cc4)CC3)c(C#N)c2-c2ccc(C#N)c(F)c2)cc1O` [Example 89, (E)-3-(4-(2-(1-(3-cyano-4-(4-cyano-3-fluorophenyl)-5-(3-hydroxy-4-methoxyphenyl)pyridin-2-yl)piperidin-4-yl)ethyl)phenyl)-N-hydroxyacrylamide] were more than 1000 nM, 120 nM and 390 nM.
For `COc1cc(-c2cnc(N3CCC(NCC4CCN(c5ccc(C(=O)NO)cc5)CC4)CC3)c(C#N)c2-c2ccc(C#N)c(F)c2)ccc1O` [Example 91, 4-(4-(1-(3-Cyano-4-(4-cyano-3-fluorophenyl)-5-(4-hydroxy-3-methoxyphenyl)pyridin-2-yl)piperidin-4-yl)amino)methyl) piperidin-1-yl)-N-hydroxybenzamide formate], in that order: 623 nM, 906 nM and 2630 nM.
Consider `COc1cc(-c2cnc(N3CCC(NCCCc4ccc(C(=O)NO)cc4)CC3)c(C#N)c2-c2ccc(C#N)c(F)c2)ccc1O` [Example 93, 4-(3-(3-Cyano-4-(4-cyano-3-fluorophenyl)-5-(4-hydroxy-3-methoxyphenyl)pyridin-2-yl)piperidin-4-yl)amino)propyl)-N-hydroxybenzamide formate], for which the IC50 in assay [3] (setting [6]) worked out at 343 nM; in assay [4] (setting [7]), 1280 nM; in assay [5] (setting [8]), 2840 nM.
As to `N#Cc1ccc(-c2c(-c3ccc(F)c(O)c3)cnc(N3CCC(NCc4ccc(/C=C/C(=O)NO)cc4)CC3)c2C#N)cc1F` [Example 97, (E)-3-(4-((1-(3-Cyano-4-(4-cyano-3-fluorophenyl)-5-(4-fluoro-3-hydroxyphenyl)pyridin-2-yl)piperidin-4-yl)amino)methyl) phenyl)-N-hydroxyacrylamide formate], the IC50 in assay [1] was 1.06 nM; in assay [3] (setting [6]) it was 8.93 nM; in assay [4] (setting [7]), 8.76 nM; in assay [5] (setting [8]), 21 nM.
For `COc1ccc(-c2cnc(N3CCC(NCc4ccc(/C=C/C(=O)NO)cc4)CC3)c(C#N)c2-c2ccc(C#N)c(F)c2)c(O)c1O` [Example 140, (E)-3-(4-(((1-(3-Cyano-4-(4-cyano-3-fluorophenyl)-5-(2,3-dihydroxy-4-methoxyphenyl)pyridin-2-yl)piperidin-4-yl)amino)methyl)phenyl)-N-hydroxyacrylamide formate], in that order: 44.2 nM, 220 nM, 405 nM and 5190 nM.
For `Cn1nnc2cc(-c3cnc(N4CCC(NCc5ccc(/C=C/C(=O)NO)cc5)CC4)c(C#N)c3-c3ccc(C#N)c(F)c3)ccc21` [Example 141, (E)-3-(4-(((1-(3-Cyano-4-(4-cyano-3-fluorophenyl)-5-(1-methyl-1H-benzo[d][1,2,3]triazol-5-yl)pyridin-2-yl)piperidin-4-yl)amino)methyl)phenyl)-N-hydroxyacrylamide formate], in that order: 1.72 nM, 31 nM, 95.8 nM and 129 nM.
With `COc1ccc(-c2cnc(N3CCC(NCc4ccc(/C=C/C(=O)NO)cc4)CC3)c(C(F)(F)F)c2-c2ccc(C#N)c(F)c2)cc1O` [Example 147, (E)-3-(4-(4-(4-Cyano-3-fluorophenyl)-5-(3-hydroxy-4-methoxyphenyl)-3-(trifluoromethyl)pyridin-2-yl)piperidin-4-yl)amino)methyl) phenyl)-N-hydroxyacrylamide formate], the IC50 came to 153 nM in assay [1], 255 nM in assay [3] (H1417 small cell lung cancer cell proliferation), 440 nM in assay [4] (H69 small cell lung cancer cell proliferation) and 658 nM in assay [5] (Du145 prostate cancer cell proliferation).
